Toxic doses and inconclusive results are not listed. Cut-off read from the data, not from the text of the source: active = T/C of 150% or more; inactive = T/C below 125%.
Tested on: L1210 leukemia ip in BDF1 mice, survival T/C
Experiment: NCI In Vivo Anticancer Drug Screen. Data for tumor model L1210 Leukemia (intraperitoneal) in B6D2F1 (BDF1) mice
Conditions: endpoint: mean survival time, higher = longer survival
Outline: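 Antitumor effect is assessed in tumor-bearing animals. Survival in the compound arm is compared with a vehicle-dosed control arm and expressed as their quotient.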

[1] = dose: 100.0 mg/kg/injection, schedule: Q01DX009 (ip), vehicle: saline with Tween-80
[2] = dose: 100.0 mg/kg/injection, schedule: Q04DX002 (ip), vehicle: Klucel (hydroxypropylcellulose) (HPC)
[3] = dose: 200.0 mg/kg/injection, schedule: Q01DX009 (ip), vehicle: saline with Tween-80
[4] = dose: 200.0 mg/kg/injection, schedule: Q04DX002 (ip), vehicle: Klucel (hydroxypropylcellulose) (HPC)
[5] = dose: 400.0 mg/kg/injection, schedule: Q01DX009 (ip), vehicle: saline with Tween-80
[6] = dose: 400.0 mg/kg/injection, schedule: Q04DX002 (ip), vehicle: Klucel (hydroxypropylcellulose) (HPC)
[7] = dose: 100.0 mg/kg/injection, schedule: Q01DX001 (ip), vehicle: saline with Tween-80
[8] = dose: 200.0 mg/kg/injection, schedule: Q01DX001 (ip), vehicle: saline with Tween-80
[9] = dose: 100.0 mg/kg/injection, schedule: Q01DX001 (ip), vehicle: saline
[10] = dose: 200.0 mg/kg/injection, schedule: Q01DX001 (ip), vehicle: saline
[11] = dose: 100.0 mg/kg/injection, schedule: Q01DX001 (ip), vehicle: carboxymethylcellulose (CMC)
[12] = dose: 200.0 mg/kg/injection, schedule: Q01DX001 (ip), vehicle: carboxymethylcellulose (CMC)
[13] = dose: 400.0 mg/kg/injection, schedule: Q01DX001 (ip), vehicle: carboxymethylcellulose (CMC)
[14] = dose: 100.0 mg/kg/injection, schedule: Q01DX009 (ip), vehicle: saline
[15] = dose: 400.0 mg/kg/injection, schedule: Q01DX009 (ip), vehicle: saline
[16] = dose: 100.0 mg/kg/injection, schedule: Q04DX003 (ip), vehicle: saline with Tween-80
[17] = dose: 200.0 mg/kg/injection, schedule: Q04DX003 (ip), vehicle: saline with Tween-80
[18] = dose: 400.0 mg/kg/injection, schedule: Q04DX003 (ip), vehicle: saline with Tween-80
[19] = dose: 200.0 mg/kg/injection, schedule: Q01DX009 (ip), vehicle: saline
[20] = dose: 100.0 mg/kg/injection, schedule: Q04DX003 (ip), vehicle: Klucel (hydroxypropylcellulose) (HPC)
[21] = dose: 200.0 mg/kg/injection, schedule: Q04DX003 (ip), vehicle: Klucel (hydroxypropylcellulose) (HPC)

Measured: T/C

CCOc1ccc(P2(=S)SP(=S)(c3ccc(OCC)cc3)S2)cc1 (stereo unspecified)
inactive: [1] 97 % of control | [2] 94 % of control | [3] 91 % of control | [4] 88 % of control | [5] 102 % of control | [6] 102 % of control

CCCCC(=O)N(CCCC)CCCC
inactive: dose: 100.0 mg/kg/injection, schedule: Q04DX002 (ip), vehicle: saline 107 % of control | dose: 200.0 mg/kg/injection, schedule: Q04DX002 (ip), vehicle: saline 114 % of control | dose: 400.0 mg/kg/injection, schedule: Q04DX002 (ip), vehicle: saline 93 % of control

C(CCCCCC1CCC2CCCC2C1)CCCCC1CCC2CCCC2C1 (stereo unspecified)
inactive: [7] 87 % of control | [8] 101 % of control | dose: 400.0 mg/kg/injection, schedule: Q01DX001 (ip), vehicle: saline with Tween-80 87 % of control

O=S(=O)(O)c1ccc(N=Nc2ccc(O)c(Cl)c2)cc1
inactive: dose: 55.0 mg/kg/injection, schedule: Q01DX Z (ip), vehicle: methylcellulose (MC) 94 % of control | dose: 83.0 mg/kg/injection, schedule: Q01DX Z (ip), vehicle: methylcellulose (MC) 96 % of control | dose: 125.0 mg/kg/injection, schedule: Q01DX Z (ip), vehicle: methylcellulose (MC) 106 % of control

N#Cc1ccc(/C=N\NC(=O)CCCC(=O)N/N=C/c2ccc(C#N)cc2)cc1
inactive: dose: 50.0 mg/kg/injection, schedule: Q01DX001 (ip), vehicle: other 91 % of control | dose: 100.0 mg/kg/injection, schedule: Q01DX001 (ip), vehicle: other 91 % of control | dose: 400.0 mg/kg/injection, schedule: Q01DX001 (ip), vehicle: other 91 % of control

Cc1c(CCNC=O)cc(C)c2c3c(oc12)CCCC3
inactive: dose: 50.0 mg/kg/injection, schedule: Q01DX001 (ip), vehicle: saline 101 % of control | [9] 104 % of control | [10] 104 % of control

O=Nc1c2cc3ccccc3[nH]c-2c2ccccc12
inactive: dose: 50.0 mg/kg/injection, schedule: Q01DX001 (ip), vehicle: Klucel (hydroxypropylcellulose) (HPC) 95 % of control | dose: 100.0 mg/kg/injection, schedule: Q01DX001 (ip), vehicle: Klucel (hydroxypropylcellulose) (HPC) 93 % of control | dose: 200.0 mg/kg/injection, schedule: Q01DX001 (ip), vehicle: Klucel (hydroxypropylcellulose) (HPC) 93 % of control

O=C1OC(=O)C23CC=CCC12CC=CC3 (stereo unspecified)
inactive: dose: 50.0 mg/kg/injection, schedule: Q01DX001 (ip), vehicle: carboxymethylcellulose (CMC) 104 % of control | [11] 113 % of control | [12] 102 % of control | [13] 104 % of control

CCCCCCCCCCCCc1ccc2c(c1)CCc1ccccc1-2
inactive: [11] 97 % of control | [12] 92 % of control | [13] 90 % of control

O=c1c(Cl)c(C(Cl)(Cl)Cl)[nH]c2ccccc12
inactive: dose: 25.0 mg/kg/injection, schedule: Q01DX001 (ip), vehicle: saline with Tween-80 104 % of control | dose: 50.0 mg/kg/injection, schedule: Q01DX001 (ip), vehicle: saline with Tween-80 106 % of control

CC(C)(CS(C)(=O)=O)C(=O)O
inactive: [9] 98 % of control | [14] 89 % of control | [10] 98 % of control | dose: 400.0 mg/kg/injection, schedule: Q01DX001 (ip), vehicle: saline 101 % of control | [15] 91 % of control

NCCCCC(=O)NC(CCCCNC(=O)OCc1ccccc1)C(=O)NCCCCC(=O)NC(CCCCNC(=O)OCc1ccccc1)C(=O)NCCCCC(=O)NC(CCCCNC(=O)OCc1ccccc1)C(=O)NCCCCC(=O)NC(CCCCNC(=O)OCc1ccccc1)C(=O)NCCCCC(=O)NC(CCCCNC(=O)OCc1ccccc1)C(=O)O (stereo unspecified)
inactive: [9] 90 % of control

BrC(Br)c1ccc(C(Br)Br)cc1
inactive: [16] 94 % of control | [17] 100 % of control | [18] 94 % of control

Cc1no[n+]([O-])c1C(=O)NN
inactive: [2] 106 % of control | [4] 91 % of control | [6] 95 % of control

CCOC(=O)C(C)NC(=O)C(CSC(c1ccccc1)(c1ccccc1)c1ccccc1)NC(c1ccccc1)(c1ccccc1)c1ccccc1 (stereo unspecified)
inactive: dose: 25.0 mg/kg/injection, schedule: Q01DX009 (ip), vehicle: saline 98 % of control | dose: 50.0 mg/kg/injection, schedule: Q01DX009 (ip), vehicle: saline 103 % of control | [14] 92 % of control | [19] 93 % of control | [15] 98 % of control

[B-][N+]12CC[N+]([B-])(CC1)CC2
inactive: dose: 0.06 mg/kg/injection, schedule: Q01DX009 (ip), vehicle: saline sonified 98 % of control | dose: 0.06 mg/kg/injection, schedule: Q04DX003 (ip), vehicle: saline sonified 113 % of control | dose: 0.13 mg/kg/injection, schedule: Q01DX009 (ip), vehicle: saline sonified 96 % of control | dose: 0.13 mg/kg/injection, schedule: Q04DX003 (ip), vehicle: saline sonified 96 % of control | dose: 0.25 mg/kg/injection, schedule: Q01DX009 (ip), vehicle: saline sonified 100 % of control | dose: 0.25 mg/kg/injection, schedule: Q04DX003 (ip), vehicle: saline sonified 103 % of control

CC(C)=CCC/C(C)=C/Cn1ccccc1=O
inactive: [7] 98 % of control | [8] 98 % of control

CCOc1ccc(Nc2cccc(O)c2)cc1
inactive: dose: 50.0 mg/kg/injection, schedule: Q01DX009 (ip), vehicle: saline with Tween-80 95 % of control | [1] 103 % of control | [3] 95 % of control

Cc1ccc(N=Nc2ccc(C)cc2NC(=O)Nc2ccccc2F)cc1
inactive: dose: 100.0 mg/kg/injection, schedule: Q01DX009 (ip), vehicle: Klucel (hydroxypropylcellulose) (HPC) 104 % of control | dose: 200.0 mg/kg/injection, schedule: Q01DX009 (ip), vehicle: Klucel (hydroxypropylcellulose) (HPC) 97 % of control | dose: 400.0 mg/kg/injection, schedule: Q01DX009 (ip), vehicle: Klucel (hydroxypropylcellulose) (HPC) 88 % of control

CC(=O)n1ccnc1/C=C\c1ccc([N+](=O)[O-])s1
inactive: [20] 103 % of control | [21] 101 % of control

Cc1ccc(-c2cc(=S)ss2)cc1
inactive: [11] 100 % of control | [12] 92 % of control | [13] 94 % of control

CN(C)C(=O)Nc1cccc(OP(=O)(Oc2ccccc2)Oc2ccccc2)c1
inactive: [20] 91 % of control | [21] 94 % of control | dose: 400.0 mg/kg/injection, schedule: Q04DX003 (ip), vehicle: Klucel (hydroxypropylcellulose) (HPC) 98 % of control

COC(=O)C1CC(OC(C)=O)C(C(N)=O)C1 (stereo unspecified)
inactive: [14] 101 % of control | [19] 111 % of control | [15] 101 % of control

COc1cc(OC)c(Br)cc1C
inactive: [1] 100 % of control | [16] 100 % of control | [3] 101 % of control | [17] 96 % of control | [5] 102 % of control | [18] 104 % of control
